In patent US8809360B2, “Use of a pyridine compound for the preparation of a medicament for the treatment of skin lesions” (Mitsubishi Tanabe Pharma Corporation, priority 2004, dated 2014):
Several values for one entry are separate records, joined by “and”; a condition that tells them apart may be missing. Identical values can stand only once.

Test system: Human Dermal Microvascular Endothelial Cell (HDMEC)
Assay: Promoting activity in vitro on human dermal microvascular endothelial cell (HDMEC) proliferation
Format: cell-based
Conditions: positive control: bFGF solution 0.1 μg/mL medium
Experimental: The wound healing-promoting activity of test compounds were investigated in terms of the promotion activity on HDMEC proliferation in the following manner. As a HDMEC, normal adult dermal microvascular endothelial cells (Hybridoma (1996): Vol. 15 (4), pp 279-288) were used in this study.
A suspension of HDMEC mentioned above (2×10^4 cells/mL; Cryo HMVEC-Ad; trademark registered by Cambrex Inc.) were seeded on 48-well plate (250 μL/well). The cells were cultured in a proliferation medium (BletKit EGM-2-MV; trademark registered by Cambrex Inc.) for one day. After substituting an assay medium (450 μL, bFGF-, EGF- and VEGF-free BletKit EGM-2-MV; trademark registered by Cambrex Inc.) for the proliferation medium, a dimethylsulfoxide solution of the test compound (0.1 v/v %, 50 μL) was added to each well and the cells were cultured for 96 hours. After culturing, the assay medium was removed by aspiration and the residual cells were suspended in Isoton II solution (500 μL; Beckmann-Coulter Ltd.) containing 0.05% trypsin and 0.02% ethylenediaminetetraacetic acid. The suspension was diluted (11-fold) with Isoton II solution (5 mL) and the number of cells were counted by Coulter-Counter Z1 (Beckmann-Coulter Ltd.).
As a negative control group, HDMEC was cultured in the same manner, but in the absence of the test compound, as described above. […]

Substance: Positive control: bFGF solution (0.1 μg/mL medium) used instead of the test compound solution; basic fibroblast growth factor
- Number of cells after 96 hours: 1.31 × 10^4 cells and 1.81 × 10^4 cells and 2.03 × 10^4 cells
- Number of cells after 96 hours (listed as positive control): 1.95 × 10^4 cells
